{"source": "patent US20110212899A1", "about": "“Corneal Neuritogenesis Promoter Containing Pacap and Its Derivative” (priority 2004, published 2011)", "key": {"[1]": {"test_system": "cultured rabbit trigeminal nerve cells", "experiment": "Promoting effect on neuritogenesis in cultured rabbit trigeminal nerve cells (2) (Test Example 4)", "format": "cell-based", "settings": "cultured for 48 hours, control group 20.7%", "excerpt": "Japanese white rabbits (2 to 3 days old) purchased from Kitayama Labes Co., Lid. were used.\nRabbit trigeminal nerve cells were isolated according to a method reported by Chan et al. (Kwan Y. Chan and Richard H. Haschke, Exp. Eye Res. 41: 687-699, 1985). The rabbit was subjected to cardiac perfusion with physiological saline under ether anesthesia. A trigeminal ganglion was excised from the rabbit, and then dispersed in a nerve dispersion liquid (Sumitomo Bakelite Co., Ltd.) to prepare trigeminal nerve cells. The trigeminal nerve cells were cultured in Neurobasal medium (Invitrogen Corp) supplemented with B27 Supplement (Invitrogen Corp; final concentration: 2% v/v) and L-glutamine (Invitrogen Corp; final concentration: 1 mM) under 5% CO2 and 95% air at a humidity of 100% and a temperature of 37° C. […]\nFor evaluating neuritogenesis in the cultured rabbit trigeminal nerve cells, the length of the longest neurite and the major axis of the cell body in the stained cell images scanned into the computer were measured using image analysis software (Image-Pro Plus ver. 4.0, Planetron, Inc.) The cells in 3 wells for each group were measured. […] The proportion (%) of the neurite forming cells in the total cell number was calculated (Otori, Y., Wei, J. Y., Barnstable, C. J., Invest. Opthalmol. Vis. Sic., (1998)39, 972-981). […]"}, "[2]": {"test_system": "Human normal corneal epithelial cells", "experiment": "Promoting effect on proliferation of cultured corneal epithelial cells (Test Example 8)", "format": "cell-based", "settings": "final concentration (10^−5 M), cultivation for 8 days; p<0.05", "description": "Human normal corneal epithelial cells (Kurabo Industries Ltd., strain No. 4C0466) were used. Peptide 24 and PACAP27 were used as test substances. The test substance was dissolved in distilled water at a concentration 1000 times of the final concentration (10^−5 M), and the concentration was then adjusted to twice the final concentration with a serum-free proliferation medium for human corneal epithelial cells (EpiLife (−), Kurabo Industries Ltd.). After thawing freeze-preserved human normal corneal epithelial cells, the cells were seeded according to a conventional method and cultured for 7 days at 37° C. in 5% CO2. After the cultivation, the cells were harvested by a conventional method, and were suspended in EpiLife (−) at a concentration of 1.0×10^4 cells/mL. […] The number of the cells was counted based on the ability to reduce MTT (3-(4,5-dimethyl-2-thiazolyl)-2,5-diphenyl-2H-tetrazolium bromide) according to the protocol of Cell Counting Kit-8 (Dojindo Laboratories). […] The plate was incubated at 37° C. in 5% CO2 for 2 hours and then, the absorbance was measured at 450 nm using a microplate reader. Average values of absorbance in the control group and each test substance-addition group were calculated, and the values were compared between the control group and each test substance-addition group by a Dunnett's multiple comparison test (one-tailed). […]"}}, "note": "Where no end group is shown, it is not given here."}
{"substance": "His-Ser-Asp-Ala-Ile-Phe-Thr-Asp-Ser-Tyr-Ser-Arg-Tyr-Arg-Arg-Gln-Leu-Ala-Val-Arg-Arg-Tyr-Leu-Ala-Ala-Val-Leu-Gly-Arg-Arg-NH2 (HSDAIFTDSYSRYRRQLAVRRYLAAVLGRR-NH2) [Peptide 24]", "values": [{"measurement": "proportion (%) of the neurite forming cells in the total cell number", "setting": "[1]; 0.1 μM", "result": 42.5, "unit": "%"}, {"measurement": "proportion (%) of the neurite forming cells in the total cell number", "setting": "[1]; 1 μM", "result": 51.4, "unit": "%"}, {"measurement": "cell number (MTT reduction ability) compared with control group", "setting": "[2]", "result": "increased"}]}
